Organism: Rattus norvegicus
Assay: DrugMatrix - Regimen: Daily Repeat
Type: toxicity, organism-based, Sprague-Dawley
Set-up: regimen Daily Repeat, gender Male, age 6-8 weeks
Details: in vivo, po, route oral GAVAGE, vehicle .5 % CMC; for ABSOLUTE BASOPHIL / ABSOLUTE EOSINOPHIL / ABSOLUTE LYMPHOCYTE / ABSOLUTE MONOCYTE / ABSOLUTE SEGMENTED NEUTROPHIL / BASOPHIL / EOSINOPHIL / ERYTHROCYTE COUNT / HEMATOCRIT / HEMOGLOBIN / LEUKOCYTE COUNT / LYMPHOCYTE / MEAN CORPUSCULAR HEMOGLOBIN CONCENTRATION / MEAN CORPUSCULAR VOLUME / MONOCYTE / NEUTROPHIL / NUCLEATED RED BLOOD CELLS / PLATELET COUNT: tissue Blood; for ALANINE AMINOTRANSFERASE / ALBUMIN / ALKALINE PHOSPHATASE / BLOOD UREA NITROGEN / CARBON DIOXIDE / CHLORIDE / CHOLESTEROL / CREATINE PHOSPHOKINASE / CREATININE / GLUCOSE / LACTATE DEHYDROGENASE / LIPASE / PHOSPHORUS / POTASSIUM / SODIUM / TOTAL BILIRUBIN / TOTAL PROTEIN: tissue Plasma
[1] = 0 mg/kg, 72 h, dose level Control, time 3 day
[2] = 0 mg/kg, 120 h, dose level Control, time 5 day
[3] = 60 mg/kg, 72 h, dose level High, time 3 day

Q: Which “ABSOLUTE BASOPHIL” value [1] does the source give for `CO[C@H]1C[C@@H]2CC[C@@H](C)[C@@](O)(O2)C(=O)C(=O)N2CCCC[C@H]2C(=O)O[C@H]([C@H](C)C[C@@H]2CC[C@@H](O)[C@H](OC)C2)CC(=O)[C@H](C)/C=C(\C)[C@@H](O)[C@@H](OC)C(=O)[C@H](C)C[C@H](C)/C=C/C=C/C=C/1C` [SIROLIMUS] here?
A: The value was 0 CELLS/uL.

Q: What about the “ABSOLUTE EOSINOPHIL” value [1] of the same compound?
A: Its value is 47.67 CELLS/uL.

Q: And the “ABSOLUTE LYMPHOCYTE” value [1]?
A: The value was 15937.67 CELLS/uL.

Q: What about the “ABSOLUTE MONOCYTE” value [1] of the same compound?
A: Its value is 138.33 CELLS/uL.

Q: And the “ABSOLUTE SEGMENTED NEUTROPHIL” value [1]?
A: Its value is 1443 CELLS/uL.

Q: And the BASOPHIL [1]?
A: The BASOPHIL was 0%.

Q: And the EOSINOPHIL [1]?
A: The EOSINOPHIL was 0.33%.

Q: What about the “ERYTHROCYTE COUNT” value [1] of the same compound?
A: Its value is 5.45 x10E6/uL.

Q: What about the HEMATOCRIT [1] of the same compound?
A: Its HEMATOCRIT is 34.43%.

Q: And the HEMOGLOBIN [1]?
A: Its HEMOGLOBIN is 13.38 G/DL.

Q: And the “LEUKOCYTE COUNT” value [1]?
A: The value was 17.57 x10E3/uL.

Q: And the LYMPHOCYTE [1]?
A: The LYMPHOCYTE was 90.33%.

Q: What about the “MEAN CORPUSCULAR HEMOGLOBIN CONCENTRATION” value [1] of the same compound?
A: Its value is 38.88 G/DL.

Q: What about the “MEAN CORPUSCULAR VOLUME” value [1] of the same compound?
A: The value was 63.27 fL.

Q: And the MONOCYTE [1]?
A: The MONOCYTE was 0.83%.

Q: What about the NEUTROPHIL [1] of the same compound?
A: The NEUTROPHIL was 8.5%.

Q: And the “NUCLEATED RED BLOOD CELLS” value [1]?
A: The value was 0 /100WBC.

Q: And the “PLATELET COUNT” value [1]?
A: Its value is 1298 x10E3/uL.

Q: What about the “ALANINE AMINOTRANSFERASE” value [1] of the same compound?
A: Its value is 47.67 u/L.

Q: And the ALBUMIN [1]?
A: The ALBUMIN was 4.18 G/DL.

Q: What about the “ALKALINE PHOSPHATASE” value [1] of the same compound?
A: The value was 398.5 u/L.

Q: What about the “BLOOD UREA NITROGEN” value [1] of the same compound?
A: The value was 16 mg/dL.

Q: And the “CARBON DIOXIDE” value [1]?
A: Its value is 29.17 mmol/L.

Q: What about the CHLORIDE [1] of the same compound?
A: The CHLORIDE was 98.17 MEQ/L.

Q: And the CHOLESTEROL [1]?
A: Its CHOLESTEROL is 68.83 mg/dL.

Q: What about the “CREATINE PHOSPHOKINASE” value [1] of the same compound?
A: The value was 467.33 u/L.

Q: What about the CREATININE [1] of the same compound?
A: The CREATININE was 0.14 mg/dL.

Q: And the GLUCOSE [1]?
A: Its GLUCOSE is 151.67 mg/dL.

Q: What about the “LACTATE DEHYDROGENASE” value [1] of the same compound?
A: Its value is 597.5 u/L.

Q: And the LIPASE [1]?
A: The LIPASE was 9.33 u/L.

Q: What about the PHOSPHORUS [1] of the same compound?
A: The PHOSPHORUS was 11.97 mg/dL.

Q: What about the POTASSIUM [1] of the same compound?
A: The POTASSIUM was 6.43 MEQ/L.

Q: What about the SODIUM [1] of the same compound?
A: Its SODIUM is 140.68 MEQ/L.

Q: What about the “TOTAL BILIRUBIN” value [1] of the same compound?
A: Its value is 0.18 mg/dL.

Q: And the “TOTAL PROTEIN” value [1]?
A: The value was 5.82 G/DL.

Q: And the “ABSOLUTE BASOPHIL” value [2]?
A: Its value is 0 CELLS/uL.

Q: And the “ABSOLUTE EOSINOPHIL” value [2]?
A: Its value is 31 CELLS/uL.

Q: What about the “ABSOLUTE LYMPHOCYTE” value [2] of the same compound?
A: Its value is 14327.83 CELLS/uL.

Q: And the “ABSOLUTE MONOCYTE” value [2]?
A: The value was 102.83 CELLS/uL.

Q: And the “ABSOLUTE SEGMENTED NEUTROPHIL” value [2]?
A: The value was 1321.67 CELLS/uL.

Q: And the BASOPHIL [2]?
A: The BASOPHIL was 0%.

Q: And the EOSINOPHIL [2]?
A: The EOSINOPHIL was 0.17%.

Q: And the “ERYTHROCYTE COUNT” value [2]?
A: The value was 5.79 x10E6/uL.

Q: What about the HEMATOCRIT [2] of the same compound?
A: The HEMATOCRIT was 36.1%.

Q: And the “LEUKOCYTE COUNT” value [2]?
A: The value was 15.78 x10E3/uL.

Q: And the LYMPHOCYTE [2]?
A: The LYMPHOCYTE was 90.5%.

Q: And the “MEAN CORPUSCULAR HEMOGLOBIN CONCENTRATION” value [2]?
A: The value was 39.22 G/DL.

Q: And the “MEAN CORPUSCULAR VOLUME” value [2]?
A: The value was 62.4 fL.

Q: And the MONOCYTE [2]?
A: The MONOCYTE was 0.67%.

Q: What about the NEUTROPHIL [2] of the same compound?
A: The NEUTROPHIL was 8.67%.

Q: What about the “NUCLEATED RED BLOOD CELLS” value [2] of the same compound?
A: The value was 0.17 /100WBC.

Q: And the “PLATELET COUNT” value [2]?
A: Its value is 1211.67 x10E3/uL.

Q: And the “ALANINE AMINOTRANSFERASE” value [2]?
A: Its value is 49 u/L.

Q: What about the ALBUMIN [2] of the same compound?
A: Its ALBUMIN is 4.27 G/DL.

Q: And the “ALKALINE PHOSPHATASE” value [2]?
A: Its value is 356.67 u/L.

Q: What about the “BLOOD UREA NITROGEN” value [2] of the same compound?
A: Its value is 20.5 mg/dL.

Q: And the “CARBON DIOXIDE” value [2]?
A: The value was 29.17 mmol/L.

Q: What about the CHLORIDE [2] of the same compound?
A: The CHLORIDE was 98 MEQ/L.

Q: And the CHOLESTEROL [2]?
A: Its CHOLESTEROL is 69.83 mg/dL.

Q: And the “CREATINE PHOSPHOKINASE” value [2]?
A: The value was 312 u/L.

Q: What about the CREATININE [2] of the same compound?
A: Its CREATININE is 0.21 mg/dL.

Q: And the GLUCOSE [2]?
A: The GLUCOSE was 149.83 mg/dL.

Q: And the “LACTATE DEHYDROGENASE” value [2]?
A: Its value is 322 u/L.

Q: What about the LIPASE [2] of the same compound?
A: The LIPASE was 10 u/L.

Q: What about the PHOSPHORUS [2] of the same compound?
A: Its PHOSPHORUS is 12 mg/dL.

Q: What about the POTASSIUM [2] of the same compound?
A: The POTASSIUM was 6.75 MEQ/L.

Q: What about the SODIUM [2] of the same compound?
A: The SODIUM was 142.8 MEQ/L.

Q: And the “TOTAL BILIRUBIN” value [2]?
A: The value was 0.17 mg/dL.

Q: And the “TOTAL PROTEIN” value [2]?
A: Its value is 6.1 G/DL.

Q: And the “ABSOLUTE BASOPHIL” value [3]?
A: The value was 0 CELLS/uL.

Q: What about the “ABSOLUTE EOSINOPHIL” value [3] of the same compound?
A: The value was 0 CELLS/uL.

Q: And the “ABSOLUTE LYMPHOCYTE” value [3]?
A: The value was 11212.33 CELLS/uL.

Q: And the “ABSOLUTE SEGMENTED NEUTROPHIL” value [3]?
A: Its value is 775.67 CELLS/uL.

Q: What about the BASOPHIL [3] of the same compound?
A: Its BASOPHIL is 0%.

Q: What about the EOSINOPHIL [3] of the same compound?
A: The EOSINOPHIL was 0%.

Q: What about the “ERYTHROCYTE COUNT” value [3] of the same compound?
A: The value was 6.32 x10E6/uL.

Q: And the HEMATOCRIT [3]?
A: The HEMATOCRIT was 39.93%.

Q: And the HEMOGLOBIN [3]?
A: Its HEMOGLOBIN is 15.57 G/DL.

Q: And the “LEUKOCYTE COUNT” value [3]?
A: Its value is 12.23 x10E3/uL.

Q: What about the LYMPHOCYTE [3] of the same compound?
A: The LYMPHOCYTE was 91.67%.

Q: What about the “MEAN CORPUSCULAR HEMOGLOBIN CONCENTRATION” value [3] of the same compound?
A: The value was 39 G/DL.

Q: And the “MEAN CORPUSCULAR VOLUME” value [3]?
A: The value was 63.4 fL.

Q: What about the MONOCYTE [3] of the same compound?
A: The MONOCYTE was 2%.

Q: What about the NEUTROPHIL [3] of the same compound?
A: Its NEUTROPHIL is 6.33%.

Q: What about the “NUCLEATED RED BLOOD CELLS” value [3] of the same compound?
A: Its value is 0 /100WBC.

Q: And the “PLATELET COUNT” value [3]?
A: Its value is 1112 x10E3/uL.

Q: What about the “ALANINE AMINOTRANSFERASE” value [3] of the same compound?
A: The value was 51.33 u/L.

Q: What about the ALBUMIN [3] of the same compound?
A: Its ALBUMIN is 4.23 G/DL.

Q: And the “ALKALINE PHOSPHATASE” value [3]?
A: Its value is 271 u/L.

Q: What about the “BLOOD UREA NITROGEN” value [3] of the same compound?
A: Its value is 18.33 mg/dL.

Q: And the “CARBON DIOXIDE” value [3]?
A: Its value is 29.67 mmol/L.

Q: And the CHLORIDE [3]?
A: Its CHLORIDE is 97.67 MEQ/L.

Q: What about the CHOLESTEROL [3] of the same compound?
A: The CHOLESTEROL was 84.33 mg/dL.

Q: What about the “CREATINE PHOSPHOKINASE” value [3] of the same compound?
A: The value was 323.67 u/L.

Q: And the CREATININE [3]?
A: Its CREATININE is 0.19 mg/dL.

Q: What about the GLUCOSE [3] of the same compound?
A: Its GLUCOSE is 192 mg/dL.

Q: What about the “LACTATE DEHYDROGENASE” value [3] of the same compound?
A: The value was 111.33 u/L.

Q: What about the LIPASE [3] of the same compound?
A: The LIPASE was 10.33 u/L.

Q: And the PHOSPHORUS [3]?
A: The PHOSPHORUS was 11.37 mg/dL.

Q: What about the POTASSIUM [3] of the same compound?
A: Its POTASSIUM is 5.46 MEQ/L.

Q: And the SODIUM [3]?
A: The SODIUM was 143.47 MEQ/L.

Q: And the “TOTAL BILIRUBIN” value [3]?
A: Its value is 0.17 mg/dL.

Q: And the “TOTAL PROTEIN” value [3]?
A: The value was 5.9 G/DL.

Q: And the “ABSOLUTE BASOPHIL” value (60 mg/kg, 120 h, dose level High, time 5 day)?
A: Its value is 0 CELLS/uL.

From ChEMBL document CHEMBL3885881, “DrugMatrix”
